The test system of experiment [1] is calvaria-derived murine osteoblastic cells. The experiment in a line: Etoposide-induced apoptosis of calvaria-derived osteoblastic cells. Format: cell-based, mouse. The text has this:
HeLa cells were co-transfected with reporter constructs in which SRE or AP-1 drive the expression of secreted alkaline phosphatase (SEAP), along with the wild type ERα (A and B); or its ligand binding domain (E), or E fused to a membrane (E-Mem) or nuclear (E-Nuc) localization sequence (A). A dominant negaitve (dn) MEK or dn Jnk were also introduced into a subset of the ERα transfected cells. […] In FIGS. 1A and 1B, 100% indicates activity in vehicle treated cells. (C) HeLa cells were co-transfected with the ERα and nEGFP and wild type or dn mutants of the indicated transcription factors. […] (D) HeLa cells (upper panel) were transiently co-transfected with the ERα, a nonphosphorylatable dn mutant of Bad. Calvaria-derived murine osteoblastic cells (lower panel) were pre-treated with the P13K inhibitor wortmannin. Cells were then treated as in (C). […] (E) Proposed model for a kinase-mediated non-genotropic regulation of gene transcription and apoptosis by sex steroids.
(§1) Osteoblastic cells (A) were isolated from calvaria of neonatal female or male mice, the sex of which was determined by Southern blot analysis of liver DNA with a Y chromosome specific cDNA probe; and cultured as previously described. The ability of the indicated steroids to protect against etoposide induced apoptosis was determined as in FIG. 1D, lower panel. (B) Osteoclasts were generated in bone marrow cultures from adult female or male mice, and then treated with vehicle or the indicated concentrations of steroids for 24 hours at which point the number of cells undergoing apoptosis was determined. Representative results from 1 of 4 females and 1 of 4 males examined are shown. Each point represents the mean of triplicate determinations±SD. *p<0.05 vs. vehicle, by ANOVA. (C & D) Eight-month old Swiss Webster mice (n=8-10 per group) were sham-operated, ovariectomized (OVX) or orchidectomized (ORX). […] BMD and wet uterine or seminal vesicle weight was determined six weeks later. Bars indicate means±SD. *p<0.05 vs OVX or ORX.
(§2) Quantification of apoptotic cells in vitro: Apoptosis of HeLa cells or calvaria-derived osteoblastic cells was quantified by direct visualization of changes in nuclear morphology or by trypan blue staining, respectively, as previously described (Kousteni et al, 2001). Apoptosis of osteoclasts, derived from bone marrow cells cultured with 30 ng/ml M-CSF and 30 ng/ml soluble RANK ligand, was quantified by measuring caspase 3 activity as previously described (Weinstein et al, 2002).

Experiment [2] has as its system MCF-7 cells. In words: MCF-7 cell proliferation assay (3H-thymidine uptake). Format: cell-based. To be noted: 10^−12-10^−7 M for 48 h. The text has this:
Wet uterine (A) or seminal vesicle weight (B) of female and male mice described in FIG. 11. […] Note the following morphologic differences in the uteri of OVX- and OVX+4-estren-3α,17β-diol-treated mice as compared to uteri from sham-operated and OVX+E2-treated mice: thin and atrophic columnar epithelium; compact stroma; decreased number of glands; decreased nucleus to cytoplasmic ratio in the columnar epithelial, endometrial stroma, and myometrial cells; and absence of mitotic activity. (D) Proliferation of MCF-7 cells was determined by ^3H-thymidine uptake.
MCF-7 cell proliferation assay: MCF-7 cells were serum-starved in the presence of 10^−8 M ICI 182,780 for 96 h, after which the ICI-containing medium was replaced with medium-containing vehicle or 10^−12-10^−7 M of the indicated steroids for an additional 48 h. At that time, proliferation was assayed by measuring ^3H-Thymidine uptake as previously described (Bellido et al, 1997).

In experiment [3] the test system is osteoclasts generated in bone marrow cultures from adult female or male mice. The experiment in a line: Osteoclast apoptosis in bone marrow derived cultures. Format: cell-based, mouse. The method, then:
as §1
FIG. 8 illustrates the pro-apoptotic effect of sex steroids on osteoclasts requires Src/ERK signaling. […] After 24 hours, the percentage of apoptotic osteoclasts was determined as in FIG. 7.
as §2

For experiment [4], the system named is ER (lamb uterus cytosol, human ERα, human ERβ). The experiment in a line: Relative binding affinity by competition with 3H E2 (FIG. 10). The method, then:
The proteins were absorbed to hydroxylapatite (HAP) and the free ligand removed by washing (Carlson et al, 1997). Results are expressed as percent specific binding. […] Symbols indicate means±SD of two separate experiments in which each point was determined in duplicate.
Statistical analysis: ANOVA was used to detect treatment effects. Specifically, in FIGS. 1-6 & 8, Dunnett's test (Kuehl et al, 2000) was used to detect differences between various treatments as compared to the vehicle control group. To detect differences in the efficacy of the various compounds shown in FIGS. 7A & B, the dose response curves were compared using tests for linear trend (Kuehl, 2002). Bonferroni's method was used to perform all pairwise comparisons of treatment groups in FIGS. 7E & F, FIGS. 11A, B, C, FIG. 12A, FIG. 13, FIGS. 14A and B and FIG. 9. Because the normality assumption was not satisfied for the data in FIGS. 3C & D and FIG. 12C, Wilcoxon's rank sum test (Steel et al, 1997) was used to perform all pairwise comparisons of treatment groups using a Bonferroni correction. In FIG. 14D, a two-way ANOVA was used to detect treatment and dose effects and tests for linear trend were subsequently employed to determine significant effects of each compound. In FIG. 10, logistic regression was used to estimate EC50, which was then used to determine the relative binding affinity. […]

In the case of `C[C@]12CC[C@H]3[C@@H](CCC4=C[C@H](O)CC[C@@H]43)[C@@H]1CC[C@@H]2O` [4-estren-3α,17β-diol], the “difference in potency in osteoblasts from one sex versus the other” value in experiment [1] (cell preparations from females or males) was “no difference”. For the same compound, in experiment [1] (cells from female or male mice, dose dependent manner), the “etoposide-induced apoptosis in primary cultures of osteoblasts” value is reported as “attenuated etoposide-induced apoptosis”. Moreover, in experiment [2], the MCF-7 cell proliferation result is reported as “did not stimulate”. Besides, in experiment [3], the “difference in potency in osteoclasts from females and males” value is listed as “no difference”. For the same compound, the “binding affinity for the ER compared to E2” value in experiment [4] was “lower binding affinity”.

Values taken from US20030119800A1, “Bone anabolic compounds and methods of use” (priority 2001, published 2003).
